# Source: PubChem BioAssay AID2060622 (Molecular Pharmacology Branch, DTP, NCI, 2025)
# System: 242566-281-R-J2-PDC complex spheroid viability
# Assay: Anticancer human tumor 242566-281-R-J2-PDC patient-derived pancreatic carcinoma cell line growth inhibition [CLK]
# Conditions: for IC50: curve of first compound; for viability, T/C: stronger effect = lower value
# Procedure, shortened: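 Multi-cell-type spheroids combined patient-derived tumor cells with HUVEC endothelial cells and human mesenchymal stem cells. Paired agents were dosed in half-log steps down from about clinical Cmax, or from 10 microM where Cmax was unknown.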
# [1] = second compound 0.0316 µM, first compound 0.0316 µM
# [2] = second compound 0.0316 µM, first compound 0.1 µM
# [3] = second compound 0.0316 µM, first compound 0.316 µM
# [4] = second compound 0.0316 µM, first compound 1 µM
# [5] = second compound 0.0316 µM, first compound 3.16 µM
# [6] = second compound 0.0316 µM, first compound 10 µM
# [7] = second compound 0.1 µM, first compound 0.0316 µM
# [8] = second compound 0.1 µM, first compound 0.1 µM
# [9] = second compound 0.1 µM, first compound 0.316 µM
# [10] = second compound 0.1 µM, first compound 1 µM
# [11] = second compound 0.1 µM, first compound 3.16 µM
# [12] = second compound 0.1 µM, first compound 10 µM
# [13] = second compound 0.316 µM, first compound 0.0316 µM
# [14] = second compound 0.316 µM, first compound 0.1 µM
# [15] = second compound 0.316 µM, first compound 0.316 µM
# [16] = second compound 0.316 µM, first compound 1 µM
# [17] = second compound 0.316 µM, first compound 3.16 µM
# [18] = second compound 0.316 µM, first compound 10 µM
# [19] = second compound 1 µM, first compound 0.0316 µM
# [20] = second compound 1 µM, first compound 0.1 µM
# [21] = second compound 1 µM, first compound 0.316 µM
# [22] = second compound 1 µM, first compound 1 µM
# [23] = second compound 1 µM, first compound 3.16 µM
# [24] = second compound 1 µM, first compound 10 µM
# [25] = second compound 3.16 µM, first compound 0.0316 µM
# [26] = second compound 3.16 µM, first compound 0.1 µM
# [27] = second compound 3.16 µM, first compound 0.316 µM
# [28] = second compound 3.16 µM, first compound 1 µM
# [29] = second compound 3.16 µM, first compound 3.16 µM
# [30] = second compound 3.16 µM, first compound 10 µM
# [31] = second compound 10 µM, first compound 0.0316 µM
# [32] = second compound 10 µM, first compound 0.1 µM
# [33] = second compound 10 µM, first compound 0.316 µM
# [34] = second compound 10 µM, first compound 1 µM
# [35] = second compound 10 µM, first compound 3.16 µM
# [36] = second compound 10 µM, first compound 10 µM
# 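Also: spheroids exposed to compounds for 7 days before readout.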
# 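For viability, T/C in this document: 100% = DMSO vehicle control wells.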
compound,measurement,setting,value
COc1ccc([C@@H](O)c2cc(-c3ncnc4cc(N5CCOCC5)ccc34)c(F)cc2Cl)nn1 + CNC(=O)c1ccc(Nc2nc(OC3CCCC3)c3c(-c4ccc5nc(C)oc5c4)c[nH]c3n2)c(OC)c1,IC50,second compound 0.0316 µM,> 10000 nM
same,IC50,second compound 0.1 µM,> 10000 nM
same,IC50,second compound 0.316 µM,> 10000 nM
same,IC50,second compound 1 µM,1910 nM
same,IC50,second compound 3.16 µM,129 nM
same,IC50,second compound 10 µM,< 31.6 nM
same,"viability, T/C",[1],106%
same,"viability, T/C",[2],96.5%
same,"viability, T/C",[3],89.5%
same,"viability, T/C",[4],141%
same,"viability, T/C",[5],92.4%
same,"viability, T/C",[6],66.4%
same,"viability, T/C",[7],88.9%
same,"viability, T/C",[8],103%
same,"viability, T/C",[9],89.7%
same,"viability, T/C",[10],102%
same,"viability, T/C",[11],89.2%
same,"viability, T/C",[12],69.9%
same,"viability, T/C",[13],91.7%
same,"viability, T/C",[14],85.7%
same,"viability, T/C",[15],72%
same,"viability, T/C",[16],81.1%
same,"viability, T/C",[17],76.9%
same,"viability, T/C",[18],55%
same,"viability, T/C",[19],69.2%
same,"viability, T/C",[20],62.6%
same,"viability, T/C",[21],57.7%
same,"viability, T/C",[22],51.6%
same,"viability, T/C",[23],53.1%
same,"viability, T/C",[24],36.3%
same,"viability, T/C",[25],54.5%
same,"viability, T/C",[26],51.9%
same,"viability, T/C",[27],47.2%
same,"viability, T/C",[28],39.9%
same,"viability, T/C",[29],40.2%
same,"viability, T/C",[30],33.5%
same,"viability, T/C",[31],51.3%
same,"viability, T/C",[32],47.5%
same,"viability, T/C",[33],46.5%
same,"viability, T/C",[34],43.2%
same,"viability, T/C",[35],41.9%
same,"viability, T/C",[36],32.5%
COc1cccc2c1C(=O)c1c(O)c3c(c(O)c1C2=O)CC(O)(C(=O)CO)CC3OC1CC(N)C(O)C(C)O1 (centres undefined) + CNC(=O)c1ccc(Nc2nc(OC3CCCC3)c3c(-c4ccc5nc(C)oc5c4)c[nH]c3n2)c(OC)c1,IC50,second compound 0.0316 µM,185 nM
same,IC50,second compound 0.1 µM,159 nM
same,IC50,second compound 0.316 µM,102 nM
same,IC50,second compound 1 µM,31.7 nM
same,IC50,second compound 3.16 µM,< 31.6 nM
same,IC50,second compound 10 µM,< 31.6 nM
same,"viability, T/C",[1],86.6%
same,"viability, T/C",[2],64.8%
same,"viability, T/C",[3],37%
same,"viability, T/C",[4],16.4%
same,"viability, T/C",[5],6.4%
same,"viability, T/C",[6],1.62%
same,"viability, T/C",[7],86.8%
same,"viability, T/C",[8],64.7%
same,"viability, T/C",[9],27.8%
same,"viability, T/C",[10],16%
same,"viability, T/C",[11],6.66%
same,"viability, T/C",[12],1.48%
same,"viability, T/C",[13],80.4%
same,"viability, T/C",[14],51.2%
same,"viability, T/C",[15],15.9%
same,"viability, T/C",[16],10.4%
same,"viability, T/C",[17],1.13%
same,"viability, T/C",[18],1.75%
same,"viability, T/C",[19],50.1%
same,"viability, T/C",[20],20.2%
same,"viability, T/C",[21],6.31%
same,"viability, T/C",[22],2.71%
same,"viability, T/C",[23],1.6%
same,"viability, T/C",[24],1.45%
same,"viability, T/C",[25],37.1%
same,"viability, T/C",[26],11.2%
same,"viability, T/C",[27],3.77%
same,"viability, T/C",[28],1.91%
same,"viability, T/C",[29],1.71%
same,"viability, T/C",[30],1.85%
same,"viability, T/C",[31],31.5%
same,"viability, T/C",[32],10.5%
same,"viability, T/C",[33],3.98%
same,"viability, T/C",[34],1.91%
same,"viability, T/C",[35],1.68%
same,"viability, T/C",[36],2.07%
